Assay results published in US12258328B2, “6-membered heteroaryl-containing aminopyridine compounds as EGFR inhibitors” (YUHAN CORPORATION, priority 2021, dated 2025).
Where two headings read alike, the source gives them in different places.

Legend:
EGFR del19/T790M/C797S = EGFR del19/T790M/C797S (Homo sapiens, UniProt P00533, C797S/DEL746-750/T790M); experiment: Biochemical EGFR kinase assay (Lance Ultra TR-FRET), triple mutant del19/T790M/C797S
Procedure, shortened: (§1)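 Kinase activity is measured by TR-FRET phosphopeptide detection. Compounds span 0.003 μM to 10 μM; the 1 h reaction at room temperature is quenched with EDTA, then labelled antibody (2 nM) is incubated 60 min before reading.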

EGFR L858R/T790M/C797S = EGFR L858R/T790M/C797S (Homo sapiens, UniProt P00533, C797S/L858R/T790M); experiment: Biochemical EGFR kinase assay (Lance Ultra TR-FRET), triple mutant L858R/T790M/C797S
Procedure, shortened: as §1

EGFR del19/C797S = EGFR del19/C797S (Homo sapiens, UniProt P00533, C797S/DEL746-750); experiment: Biochemical EGFR kinase assay (Lance Ultra TR-FRET), double mutant del19/C797S
Procedure, shortened: as §1

EGFR L858R/C797S = EGFR L858R/C797S (Homo sapiens, UniProt P00533, C797S/L858R); experiment: Biochemical EGFR kinase assay (Lance Ultra TR-FRET), double mutant L858R/C797S
Procedure, shortened: as §1

EGFR wildtype = EGFR wildtype (Homo sapiens, UniProt P00533); experiment: Biochemical EGFR kinase assay (Lance Ultra TR-FRET), wildtype
Procedure, shortened: as §1

[1] = IC50 del19/T790M/C797S (nM) 100 μM ATP, 100 μM ATP
[2] = Km ATP, read-out: IC50 del19/T790M/C797S (nM) Km ATP
[3] = IC50 L858R/T790M/C797S (nM) 100 μM ATP, 100 μM ATP
[4] = Km ATP, read-out: IC50 L858R/T790M/C797S (nM) Km ATP
[5] = IC50 del19/C797S (nM) 100 μM ATP, 100 μM ATP
[6] = Km ATP, read-out: IC50 del19/C797S (nM) Km ATP
[7] = IC50 L858R/C797S (nM) 100 μM ATP, 100 μM ATP
[8] = Km ATP, read-out: IC50 L858R/C797S (nM) Km ATP
[9] = IC50 WT (nM) 100 μM ATP, 100 μM ATP
[10] = Km ATP, read-out: IC50 WT (nM) Km ATP
[11] = IC50 del19/T790M/C797S, 100 μM ATP
[12] = IC50 L858R/T790M/C797S, 100 μM ATP

Chain of EGFR del19/C797S (P00533 with tags, fused parts or gaps DEL746-750/C797S): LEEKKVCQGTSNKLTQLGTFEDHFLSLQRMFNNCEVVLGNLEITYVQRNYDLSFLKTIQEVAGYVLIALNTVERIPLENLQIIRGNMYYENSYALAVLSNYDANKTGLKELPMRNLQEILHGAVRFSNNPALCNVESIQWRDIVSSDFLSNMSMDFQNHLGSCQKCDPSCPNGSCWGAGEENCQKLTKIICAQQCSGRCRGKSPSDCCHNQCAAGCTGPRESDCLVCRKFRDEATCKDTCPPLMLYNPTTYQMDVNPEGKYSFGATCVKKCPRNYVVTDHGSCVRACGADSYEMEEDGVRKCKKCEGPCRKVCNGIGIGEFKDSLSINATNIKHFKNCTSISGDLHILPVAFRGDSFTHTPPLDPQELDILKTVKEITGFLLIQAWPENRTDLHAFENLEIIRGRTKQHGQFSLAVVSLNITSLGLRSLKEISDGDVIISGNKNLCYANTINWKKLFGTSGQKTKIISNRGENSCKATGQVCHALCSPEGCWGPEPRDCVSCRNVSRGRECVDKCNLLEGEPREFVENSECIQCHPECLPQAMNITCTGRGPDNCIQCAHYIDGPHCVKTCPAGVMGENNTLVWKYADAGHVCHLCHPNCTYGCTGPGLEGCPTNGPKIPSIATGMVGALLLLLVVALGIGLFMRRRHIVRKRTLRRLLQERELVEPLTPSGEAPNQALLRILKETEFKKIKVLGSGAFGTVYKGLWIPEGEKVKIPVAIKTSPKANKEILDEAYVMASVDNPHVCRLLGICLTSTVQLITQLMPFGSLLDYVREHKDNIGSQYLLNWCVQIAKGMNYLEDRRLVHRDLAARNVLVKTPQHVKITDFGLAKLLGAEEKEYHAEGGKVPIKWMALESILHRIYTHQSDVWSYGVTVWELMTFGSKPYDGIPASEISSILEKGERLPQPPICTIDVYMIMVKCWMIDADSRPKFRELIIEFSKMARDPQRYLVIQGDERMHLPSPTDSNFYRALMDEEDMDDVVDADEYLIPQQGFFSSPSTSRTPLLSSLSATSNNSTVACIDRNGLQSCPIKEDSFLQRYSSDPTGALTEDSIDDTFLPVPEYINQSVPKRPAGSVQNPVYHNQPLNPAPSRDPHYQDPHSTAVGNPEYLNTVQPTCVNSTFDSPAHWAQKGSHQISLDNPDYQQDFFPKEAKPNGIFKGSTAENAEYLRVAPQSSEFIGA
Chain of EGFR L858R/T790M/C797S (P00533 25-1210 T790M/C797S/L858R): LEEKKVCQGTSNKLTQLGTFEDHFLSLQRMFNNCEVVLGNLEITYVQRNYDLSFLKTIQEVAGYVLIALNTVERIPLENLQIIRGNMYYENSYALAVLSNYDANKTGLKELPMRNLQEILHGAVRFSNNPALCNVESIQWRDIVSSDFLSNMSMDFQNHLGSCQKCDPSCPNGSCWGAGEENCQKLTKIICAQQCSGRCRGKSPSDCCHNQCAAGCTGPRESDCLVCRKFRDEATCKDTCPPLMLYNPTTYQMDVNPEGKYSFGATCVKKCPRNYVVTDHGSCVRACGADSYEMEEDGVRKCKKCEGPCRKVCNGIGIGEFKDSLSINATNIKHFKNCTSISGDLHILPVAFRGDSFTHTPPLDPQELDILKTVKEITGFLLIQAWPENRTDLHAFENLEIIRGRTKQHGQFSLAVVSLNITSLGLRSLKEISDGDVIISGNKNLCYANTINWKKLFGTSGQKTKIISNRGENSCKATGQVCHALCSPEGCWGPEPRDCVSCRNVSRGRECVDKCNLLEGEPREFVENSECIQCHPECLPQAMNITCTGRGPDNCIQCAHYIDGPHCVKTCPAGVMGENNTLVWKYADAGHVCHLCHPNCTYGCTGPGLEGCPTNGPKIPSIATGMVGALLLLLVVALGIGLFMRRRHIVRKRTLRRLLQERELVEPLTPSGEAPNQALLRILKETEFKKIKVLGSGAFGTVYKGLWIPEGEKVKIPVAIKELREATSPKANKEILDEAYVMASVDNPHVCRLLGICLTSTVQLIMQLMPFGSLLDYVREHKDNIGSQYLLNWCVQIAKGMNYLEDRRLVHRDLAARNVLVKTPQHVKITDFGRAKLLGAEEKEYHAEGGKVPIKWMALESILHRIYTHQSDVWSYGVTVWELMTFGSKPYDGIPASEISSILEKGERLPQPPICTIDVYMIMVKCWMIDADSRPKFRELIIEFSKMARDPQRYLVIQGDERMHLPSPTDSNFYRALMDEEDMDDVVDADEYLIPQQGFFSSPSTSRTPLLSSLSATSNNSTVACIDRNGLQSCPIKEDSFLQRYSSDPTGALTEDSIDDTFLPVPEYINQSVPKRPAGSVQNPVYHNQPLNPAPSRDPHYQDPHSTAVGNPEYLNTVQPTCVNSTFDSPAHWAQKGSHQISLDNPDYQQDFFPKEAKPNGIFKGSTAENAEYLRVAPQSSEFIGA
Chain of EGFR L858R/C797S (P00533 25-1210 C797S/L858R): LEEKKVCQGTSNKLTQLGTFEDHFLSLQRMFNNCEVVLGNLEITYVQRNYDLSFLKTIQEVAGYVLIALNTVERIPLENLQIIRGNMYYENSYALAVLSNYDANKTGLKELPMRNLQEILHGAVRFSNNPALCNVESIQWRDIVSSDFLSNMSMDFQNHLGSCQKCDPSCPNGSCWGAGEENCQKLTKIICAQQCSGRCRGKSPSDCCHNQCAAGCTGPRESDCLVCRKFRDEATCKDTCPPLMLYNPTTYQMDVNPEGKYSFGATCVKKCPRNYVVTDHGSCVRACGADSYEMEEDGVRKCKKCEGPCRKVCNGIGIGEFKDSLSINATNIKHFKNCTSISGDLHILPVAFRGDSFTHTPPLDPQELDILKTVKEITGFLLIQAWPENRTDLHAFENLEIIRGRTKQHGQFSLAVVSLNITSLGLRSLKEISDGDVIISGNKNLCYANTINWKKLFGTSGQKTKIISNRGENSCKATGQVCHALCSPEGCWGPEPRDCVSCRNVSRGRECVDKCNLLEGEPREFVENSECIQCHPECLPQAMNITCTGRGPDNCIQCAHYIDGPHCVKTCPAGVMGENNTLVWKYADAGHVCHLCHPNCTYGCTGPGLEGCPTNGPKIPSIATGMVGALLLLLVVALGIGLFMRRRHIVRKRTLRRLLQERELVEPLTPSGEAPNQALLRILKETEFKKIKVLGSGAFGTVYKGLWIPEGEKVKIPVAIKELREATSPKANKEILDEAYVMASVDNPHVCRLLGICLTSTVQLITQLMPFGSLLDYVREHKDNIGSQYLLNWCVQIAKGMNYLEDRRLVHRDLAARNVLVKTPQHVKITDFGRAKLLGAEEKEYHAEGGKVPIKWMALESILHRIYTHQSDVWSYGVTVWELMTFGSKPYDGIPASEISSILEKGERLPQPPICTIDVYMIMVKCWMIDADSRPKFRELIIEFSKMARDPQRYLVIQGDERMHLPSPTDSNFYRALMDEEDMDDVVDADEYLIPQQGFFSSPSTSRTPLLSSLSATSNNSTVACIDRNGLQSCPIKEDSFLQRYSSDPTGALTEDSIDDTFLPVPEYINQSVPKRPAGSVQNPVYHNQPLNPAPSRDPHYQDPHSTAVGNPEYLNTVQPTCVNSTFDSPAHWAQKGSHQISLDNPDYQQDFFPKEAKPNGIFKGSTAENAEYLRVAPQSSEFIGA
Chain of EGFR del19/T790M/C797S (P00533 with tags, fused parts or gaps DEL746-750/T790M/C797S): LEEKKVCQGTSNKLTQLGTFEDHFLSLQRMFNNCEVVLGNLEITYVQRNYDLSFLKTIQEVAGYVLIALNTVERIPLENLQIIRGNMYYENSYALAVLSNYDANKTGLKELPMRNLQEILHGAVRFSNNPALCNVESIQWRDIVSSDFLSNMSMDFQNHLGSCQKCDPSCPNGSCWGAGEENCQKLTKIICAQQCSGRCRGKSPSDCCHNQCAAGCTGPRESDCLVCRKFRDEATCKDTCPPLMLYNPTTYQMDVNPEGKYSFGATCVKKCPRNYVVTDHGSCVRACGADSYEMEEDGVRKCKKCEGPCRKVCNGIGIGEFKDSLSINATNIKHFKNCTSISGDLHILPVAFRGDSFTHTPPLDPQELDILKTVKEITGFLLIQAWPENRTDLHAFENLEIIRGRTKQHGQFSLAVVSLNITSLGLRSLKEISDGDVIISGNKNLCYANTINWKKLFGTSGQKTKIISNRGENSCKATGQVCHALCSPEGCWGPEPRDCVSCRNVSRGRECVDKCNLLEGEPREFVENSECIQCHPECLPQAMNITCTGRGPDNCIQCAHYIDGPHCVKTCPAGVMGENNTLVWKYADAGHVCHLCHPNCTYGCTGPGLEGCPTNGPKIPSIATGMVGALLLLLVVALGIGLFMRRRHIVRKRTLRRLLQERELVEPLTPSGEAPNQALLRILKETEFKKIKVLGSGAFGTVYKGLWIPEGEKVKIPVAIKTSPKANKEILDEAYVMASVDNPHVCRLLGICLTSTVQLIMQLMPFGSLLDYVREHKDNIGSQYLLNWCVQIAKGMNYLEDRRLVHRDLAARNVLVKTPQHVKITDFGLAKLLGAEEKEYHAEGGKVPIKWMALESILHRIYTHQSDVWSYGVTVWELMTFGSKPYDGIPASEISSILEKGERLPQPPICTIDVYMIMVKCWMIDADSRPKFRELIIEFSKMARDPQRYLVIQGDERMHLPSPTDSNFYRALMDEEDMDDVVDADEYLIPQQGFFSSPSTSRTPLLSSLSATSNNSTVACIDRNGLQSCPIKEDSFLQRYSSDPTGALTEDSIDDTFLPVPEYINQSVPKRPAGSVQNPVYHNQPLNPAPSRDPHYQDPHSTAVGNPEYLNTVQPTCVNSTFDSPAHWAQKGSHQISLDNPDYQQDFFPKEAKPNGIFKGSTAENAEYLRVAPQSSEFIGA

Row | SMILES | IC50 (EGFR del19/T790M/C797S; [1]) | IC50 (EGFR del19/T790M/C797S; [2]) | IC50 (EGFR L858R/T790M/C797S; [3]) | IC50 (EGFR L858R/T790M/C797S; [4]) | IC50 (EGFR del19/C797S; [5]) | IC50 (EGFR del19/C797S; [6]) | IC50 (EGFR L858R/C797S; [7]) | IC50 (EGFR L858R/C797S; [8]) | IC50 (EGFR wildtype; [9]) | IC50 (EGFR wildtype; [10]) | IC50 (EGFR del19/T790M/C797S; ATP at Km, read-out: IC50 del19/T790M/C797S, Km ATP) | IC50 (EGFR del19/T790M/C797S; [11]) | IC50 (EGFR L858R/T790M/C797S; ATP at Km, read-out: IC50 L858R/T790M/C797S, Km ATP) | IC50 (EGFR L858R/T790M/C797S; [12]) | IC50 (EGFR del19/C797S; ATP at Km, read-out: IC50 del19/C797S, Km ATP) | IC50 (EGFR del19/C797S; IC50 del19/C797S, 100 μM ATP) | IC50 (EGFR L858R/C797S; ATP at Km, read-out: IC50 L858R/C797S, Km ATP) | IC50 (EGFR L858R/C797S; IC50 L858R/C797S, 100 μM ATP) | IC50 (EGFR wildtype; ATP at Km, read-out: IC50 WT, Km ATP) | IC50 (EGFR wildtype; IC50 WT, 100 μM ATP)
1 | CC(C)(O)c1cnc(-c2cnc(Nc3ccnc(-c4cnn(S(=O)(=O)C5CC5)c4)n3)cc2N[C@H]2CC[C@@](C)(O)CC2)cn1 [Example 118, (1s,4s)-4-((2-((2-(1-(Cyclopropylsulfonyl)-1H-pyrazol-4-yl)pyrimidin-4-yl)amino)-5-(5-(2-hydroxypropan-2-yl)pyrazin-2-yl)pyridin-4-yl)amino)-1-methylcyclohexan-1-ol] | 0.04 nM | 0.1 nM | 0.2 nM | 0.1 nM | 0.3 nM | 0.1 nM | 0.7 nM | 0.05 nM | 400 nM | – | – | – | – | – | – | – | – | – | – | –
2 | C[C@]1(O)CC[C@@H](Nc2cc(Nc3ccnc(-c4cnn(S(=O)(=O)C5CC5)c4)n3)ncc2-c2ccc(C#N)cn2)CC1 [Example 7, 6′-((2-(1-(Cyclopropylsulfonyl)-1H-pyrazol-4-yl)pyrimidin-4-yl)amino)-4′-(((1s,4s)-4-hydroxy-4-methylcyclohexyl)amino)-[2,3′-bipyridine]-5-carbonitrile] | 0.2 nM | 0.4 nM | 0.2 nM | 0.1 nM | – | 0.5 nM | 12.4 nM | 0.6 nM | > 10000 nM | 3 nM | – | – | – | – | – | – | – | – | – | –
3 | C[C@]1(O)CC[C@@H](Nc2cc(Nc3ccnc(-c4cnn(S(=O)(=O)C5CC5)c4)n3)ncc2-c2ccc(N3CCCC3)cn2)CC1 [Example 80, (1s,4s)-4-((6′-((2-(1-(Cyclopropylsulfonyl)-1H-pyrazol-4-yl)pyrimidin-4-yl)amino)-5-(pyrrolidin-1-yl)-[2,3′-bipyridin]-4′-yl)amino)-1-methylcyclohexan-1-ol] | 6.2 nM | 3.8 nM | 6.3 nM | 2.8 nM | 8.4 nM | 2.5 nM | 11.1 nM | 2.3 nM | 4410 nM | 11.4 nM | – | – | – | – | – | – | – | – | – | –
4 | O=S(=O)(C1CC1)n1cc(-c2nccc(Nc3cc(NCC4(CO)COC4)c(-c4cccc(F)n4)cn3)n2)cn1 [Example 161, (3-(((6′-((2-(1-(Cyclopropylsulfonyl)-1H-pyrazol-4-yl)pyrimidin-4-yl)amino)-6-fluoro-[2,3′-bipyridin]-4′-yl)amino)methyl)oxetan-3-yl)methanol] | – | – | – | – | – | – | – | – | – | – | 0.1 nM | 0.1 nM | 0.1 nM | 0.5 nM | 0.9 nM | 1.2 nM | 1.9 nM | 12.4 nM | 11.6 nM | > 10000 nM
5 | C[C@]1(O)CC[C@@H](Nc2cc(Nc3ccnc(-c4cnn(S(=O)(=O)C5CC5)c4)n3)ncc2-c2ccc(C(=O)N3CCOCC3)cn2)CC1 [Example 284, (6′-((2-(1-(Cyclopropylsulfonyl)-1H-pyrazol-4-yl)pyrimidin-4-yl)amino)-4′-(((1s,4s)-4-hydroxy-4-methylcyclohexyl)amino)-[2,3′-bipyridin]-5-yl)(morpholino)methanone] | – | – | – | – | – | – | – | – | – | – | – | 0.1 nM | – | 0.2 nM | – | 0.2 nM | – | 0.4 nM | – | 176 nM
6 | CN1CCN(c2ccnc(-c3cnc(Nc4ccnc(-c5cnn(S(=O)(=O)C6CC6)c5)n4)cc3N[C@H]3CC[C@@](C)(O)CC3)c2)CC1 [Example 58, (1s,4s)-4-((6′-((2-(1-(Cyclopropylsulfonyl)-1H-pyrazol-4-yl)pyrimidin-4-yl)amino)-4-(4-methylpiperazin-1-yl)-[2,3′-bipyridin]-4′-yl)amino)-1-methylcyclohexan-1-ol] | 1.1 nM | – | 1.1 nM | – | 7.2 nM | 8 nM | 56.4 nM | 1.7 nM | > 10000 nM | 97.7 nM | – | – | – | – | – | – | – | – | – | –
7 | CN1CCN(Cc2ccc(-c3cnc(Nc4ccnc(-c5cnn(S(=O)(=O)C6CC6)c5)n4)cc3N[C@H]3CC[C@@](C)(O)CC3)nc2)CC1 [Example 9, (1s,4s)-4-((6′-((2-(1-(Cyclopropylsulfonyl)-1H-pyrazol-4-yl)pyrimidin-4-yl)amino)-5-((4-methylpiperazin-1-yl)methyl)-[2,3′-bipyridin]-4′-yl)amino)-1-methylcyclohexan-1-ol] | 0.1 nM | – | 0.3 nM | 0.1 nM | 0.7 nM | 0.2 nM | 1.9 nM | 0.2 nM | 167 nM | 1 nM | – | – | – | – | – | – | – | – | – | –
